Test results published in patent publication US20050107441A1, “Compositions and methods for altering glucose production” (priority 2001, published 2005).

Tests used:
PEPCK = test: Insulin treatment of ZDF rats, real-time quantitative PCR of liver RNA: PEPCK mRNA; type: in vivo, Zucker diabetic fatty (ZDF) rats; settings: pooled RNA samples, 6 hours after subcutaneous insulin vs vehicle (0.9% normal saline)
Experimental: (§1) In these experiments, ZDF rats were treated for 6 hours with insulin or vehicle (0.9% normal saline) alone. At the end of this period, the rats were killed and RNA prepared from their livers. […] Conversely, PEPCK levels decreased by approximately 2 fold in response to insulin.
(§2) All procedures performed were in compliance with the Animal Welfare Act, USDA regulations and approved by the GlaxoSmithKline Institutional Animal Care and Use Committee. Animals were housed at 72 F and 50% relative humidity with a 12 hour light and dark cycle, and fed chow diet (Formulab Diet 5008, PMI Feeds Inc., Richmond, Ind.). Insulin-treated animals received a mixture of HUMULIN®N and HUMULIN®R (Lilly, Indianapolis, Ind.) by subcutaneous injection and were sacrificed six hours later. RTQ-PCR was performed using an ABI PRISM 7700 Sequence Detection System instrument and software (PE Applied Biosystems, Inc., Foster City, Calif.) in accordance with procedures described by Way et al. (Endocrinology 2001 142: 1269-77). Primers used include:Rat PEPCK forward: TGAGGAAGTTTGTGGAAG (SEQ ID NO:1) • Rat PEPCK reverse: GCCGTCGCAGATGTGAAT (SEQ ID NO:2) • Rat PEPCK probe: TGCCCAGCTGTGCCAGCC (SEQ ID NO:3) • Rat SHP forward: TGGTACCCAGCTAGCCAAG (SEQ ID NO:4) • Rat SHP reverse: TGTTCTTGAGGGTGGAAGC (SEQ ID NO: 5) • Rat SHP probe: CGCCTGGCCCGAATCCTCC (SEQ ID NO:6) [drawing]

SHP mRNA = test: Insulin treatment of ZDF rats, real-time quantitative PCR of liver RNA: SHP mRNA; type: in vivo, Zucker diabetic fatty (ZDF) rats; settings: pooled RNA samples, 6 hours after subcutaneous insulin vs vehicle (0.9% normal saline)
Experimental: as §1, §2

insulin
PEPCK levels decreased in response to insulin (PEPCK): approximately 2 fold
SHP mRNA levels increased in response to insulin (SHP mRNA): approximately 17 fold
